Laboratory results from ChEMBL document CHEMBL4400538, “Discovery of Carboline Derivatives as Potent Antifungal Agents for the Treatment of Cryptococcal Meningitis” (J Med Chem, 2019).
≈ marks a conversion by molar mass, not a printed value.

System: Cryptococcus neoformans
Test: Antifungal activity against Cryptococcus neoformans H99 after 48 hrs by growth curve assay
Format: functional
Conditions: var grubii H99 

Point of comparison: Fc1cccc(NCCCn2c3c(c4ccccc42)CCNC3)c1.O=C(O)C(F)(F)F, MIC80 16 µg/mL. Against it:
- COc1ccc2c3c(n(CCCOc4ccc(Cl)cc4)c2c1)CNCC3.O=C(O)C(F)(F)F — 8-fold lower, 2 µg/mL
- Fc1ccc2c3c(n(CCCOc4ccc(Cl)cc4)c2c1)CNCC3.O=C(O)C(F)(F)F — 8-fold lower, 2 µg/mL
- Fc1cccc(OCCCn2c3c(c4ccccc42)CCNC3)c1.O=C(O)C(F)(F)F — 2-fold lower, 8 µg/mL
- Clc1ccccc1NCCCn1c2c(c3ccccc31)CCNC2.O=C(O)C(F)(F)F — 2-fold lower, 8 µg/mL
- Fc1cccc2c1c1c(n2CCCOc2ccc(Cl)cc2)CNCC1.O=C(O)C(F)(F)F — 4-fold lower, 4 µg/mL
- C1=CCN(CCCn2c3c(c4ccccc42)CCNC3)C1 — 4-fold higher, 64 µg/mL (≈ 227 µM)
- CCN(CC)CCCn1c2c(c3ccccc31)CCNC2 — 4-fold higher, 64 µg/mL (≈ 224 µM)
- Brc1cccc(OCCCn2c3c(c4ccccc42)CCNC3)c1.O=C(O)C(F)(F)F — 4-fold lower, 4 µg/mL
- c1ccc(CN2CCN(CCCn3c4c(c5ccccc53)CCNC4)CC2)cc1 — 2-fold higher, 32 µg/mL (≈ 82.4 µM)
- Cc1ccc(OCCCn2c3c(c4ccccc42)CCNC3)cc1.O=C(O)C(F)(F)F — 2-fold lower, 8 µg/mL
- Clc1ccc(NCCCn2c3c(c4ccccc42)CCNC3)cc1.O=C(O)C(F)(F)F — 2-fold lower, 8 µg/mL
- Brc1ccccc1OCCCn1c2c(c3ccccc31)CCNC2.O=C(O)C(F)(F)F — 2-fold lower, 8 µg/mL
- O=C(O)C(F)(F)F.O=[N+]([O-])c1ccc(OCCCn2c3c(c4ccccc42)CCNC3)cc1 — the same, 16 µg/mL
- Cc1ccc(NCCCn2c3c(c4ccccc42)CCNC3)cc1.O=C(O)C(F)(F)F — the same, 16 µg/mL
- COc1ccc(NCCCn2c3c(c4ccccc42)CCNC3)cc1.O=C(O)C(F)(F)F — 2-fold higher, 32 µg/mL
- CCOc1ccc(NCCCn2c3c(c4ccccc42)CCNC3)cc1.O=C(O)C(F)(F)F — 2-fold higher, 32 µg/mL
- c1ccc(C2CCN(CCCn3c4c(c5ccccc53)CCNC4)CC2)cc1 — 2-fold higher, 32 µg/mL (≈ 85.7 µM)
- CCOc1ccccc1NCCCn1c2c(c3ccccc31)CCNC2.O=C(O)C(F)(F)F — 2-fold higher, 32 µg/mL
- Fc1ccccc1OCCCn1c2c(c3ccccc31)CCNC2.O=C(O)C(F)(F)F — the same, 16 µg/mL
- CCOc1cccc(NCCCn2c3c(c4ccccc42)CCNC3)c1.O=C(O)C(F)(F)F — 4-fold higher, 64 µg/mL
- Brc1ccccc1NCCCn1c2c(c3ccccc31)CCNC2.O=C(O)C(F)(F)F — 2-fold lower, 8 µg/mL
- Cc1cccc2c3c(n(CCCOc4ccc(Cl)cc4)c12)CNCC3.O=C(O)C(F)(F)F — 8-fold lower, 2 µg/mL
- Clc1ccc(OCCCn2c3c(c4ccccc42)CCNC3)cc1.O=C(O)C(F)(F)F — 4-fold lower, 4 µg/mL
- COc1cccc(OCCCn2c3c(c4ccccc42)CCNC3)c1.O=C(O)C(F)(F)F — the same, 16 µg/mL
- COc1ccc2c(c1)c1c(n2CCCOc2ccc(Cl)cc2)CNCC1.O=C(O)C(F)(F)F — 4-fold lower, 4 µg/mL
- Cc1ccc2c3c(n(CCCOc4ccc(Cl)cc4)c2c1)CNCC3.O=C(O)C(F)(F)F — 8-fold lower, 2 µg/mL
- COc1cccc2c3c(n(CCCOc4ccc(Cl)cc4)c12)CNCC3.O=C(O)C(F)(F)F — 4-fold lower, 4 µg/mL
- CC1CCCN(CCCn2c3c(c4ccccc42)CCNC3)C1 (stereo not given) — 2-fold higher, 32 µg/mL (≈ 103 µM)
- Clc1ccc(OCCCn2c3c(c4ccc(Cl)cc42)CCNC3)cc1.O=C(O)C(F)(F)F — 8-fold lower, 2 µg/mL
- COc1ccc(OCCCn2c3c(c4ccccc42)CCNC3)cc1.O=C(O)C(F)(F)F — the same, 16 µg/mL
- COc1cccc(NCCCn2c3c(c4ccccc42)CCNC3)c1.O=C(O)C(F)(F)F — 2-fold higher, 32 µg/mL
- Brc1ccc(OCCCn2c3c(c4ccccc42)CCNC3)cc1.O=C(O)C(F)(F)F — 4-fold lower, 4 µg/mL
- Clc1cccc(NCCCn2c3c(c4ccccc42)CCNC3)c1.O=C(O)C(F)(F)F — 2-fold lower, 8 µg/mL
- COc1ccccc1NCCCn1c2c(c3ccccc31)CCNC2.O=C(O)C(F)(F)F — 2-fold higher, 32 µg/mL
- COc1ccccc1OCCCn1c2c(c3ccccc31)CCNC2.O=C(O)C(F)(F)F — 2-fold higher, 32 µg/mL
- O=C1c2ccccc2C(=O)N1CCCn1c2c(c3ccccc31)CCNC2 — 4-fold higher, 64 µg/mL (≈ 178 µM)
- Fc1ccc(OCCCn2c3c(c4ccccc42)CCNC3)cc1.O=C(O)C(F)(F)F — 2-fold lower, 8 µg/mL
- c1ccc2c(c1)c1c(n2CCN2CCOCC2)CNCC1 — 4-fold higher, 64 µg/mL (≈ 224 µM)
- Clc1ccccc1OCCCn1c2c(c3ccccc31)CCNC2.O=C(O)C(F)(F)F — 4-fold lower, 4 µg/mL
- Brc1ccc(NCCCn2c3c(c4ccccc42)CCNC3)cc1.O=C(O)C(F)(F)F — 2-fold lower, 8 µg/mL
- Clc1ccc(OCCCn2c3c(c4cccc(Cl)c42)CCNC3)cc1.O=C(O)C(F)(F)F — 8-fold lower, 2 µg/mL
- c1ccc2c(c1)c1c(n2CCCN2CCCCC2)CNCC1 — 4-fold higher, 64 µg/mL (≈ 215 µM)
- Clc1ccc(OCCCn2c3c(c4c(Br)cccc42)CCNC3)cc1.O=C(O)C(F)(F)F — 2-fold lower, 8 µg/mL
- COc1ccc(N2CCN(CCCn3c4c(c5ccccc53)CCNC4)CC2)cc1 — 4-fold higher, 64 µg/mL (≈ 158 µM)
- Fc1ccc(NCCCn2c3c(c4ccccc42)CCNC3)cc1.O=C(O)C(F)(F)F — the same, 16 µg/mL
- Clc1ccc(OCCCn2c3c(c4cccc(Br)c42)CCNC3)cc1.O=C(O)C(F)(F)F — 4-fold lower, 4 µg/mL
- COc1ccccc1N1CCN(CCCn2c3c(c4ccccc42)CCNC3)CC1 — 4-fold higher, 64 µg/mL (≈ 158 µM)
- Clc1ccc(OCCCn2c3c(c4c(Cl)cccc42)CCNC3)cc1.O=C(O)C(F)(F)F — 4-fold lower, 4 µg/mL
- c1ccc(N2CCN(CCCn3c4c(c5ccccc53)CCNC4)CC2)cc1 — 2-fold higher, 32 µg/mL (≈ 85.4 µM)
- Clc1ccc(OCCCn2c3c(c4ccc(Br)cc42)CCNC3)cc1.O=C(O)C(F)(F)F — 8-fold lower, 2 µg/mL
- CN(C)CCn1c2c(c3ccccc31)CCNC2 — 4-fold higher, 64 µg/mL (≈ 263 µM)
- c1ccc2c(c1)c1c(n2CCCNC2CCCC2)CNCC1 — 4-fold higher, 64 µg/mL (≈ 215 µM)
- Fc1ccccc1NCCCn1c2c(c3ccccc31)CCNC2.O=C(O)C(F)(F)F — the same, 16 µg/mL
- Clc1cccc(OCCCn2c3c(c4ccccc42)CCNC3)c1.O=C(O)C(F)(F)F — 4-fold lower, 4 µg/mL
- Clc1ccc(OCCCn2c3c(c4cc(Br)ccc42)CCNC3)cc1.O=C(O)C(F)(F)F — 32-fold lower, 0.5 µg/mL
- c1ccc2c(c1)c1c(n2CCCN2CCCC2)CNCC1 — 4-fold higher, 64 µg/mL (≈ 226 µM)
- Brc1cccc(NCCCn2c3c(c4ccccc42)CCNC3)c1.O=C(O)C(F)(F)F — 2-fold lower, 8 µg/mL

System: not listed separately
Test: Half life in ICR mouse liver microsomes at 1 uM measured up to 45 mins in presence of NADPH by LC-MS/MS analysis
Format: ADME, Microsome
Conditions: not given

Compound Cc1ncc2n1-c1ccc(Cl)cc1C(c1ccccc1F)=NC2 [MIDAZOLAM] has a half-life at 1 µM of 2 min.

System: not listed separately
Test: Solubility of the compound
Format: physicochemical
Conditions: not given

With Clc1ccc(OCCCn2c3c(c4cc(Br)ccc42)CCNC3)cc1.O=C(O)C(F)(F)F the solubility was 19.3 µg/mL.
